34 molecules from patent publication US20250059164A1, “IRAK DEGRADERS AND USES THEREOF” (Kymera Therapeutics, Inc., priority 2023, published 2025) can be followed below.

In the experiment the target is T1, IRAK4 (Homo sapiens, UniProt Q9NWZ3).
T1 construct: endogenous in cells; host or cells: OCI-LY10
T1 sequence (Q9NWZ3 1-460): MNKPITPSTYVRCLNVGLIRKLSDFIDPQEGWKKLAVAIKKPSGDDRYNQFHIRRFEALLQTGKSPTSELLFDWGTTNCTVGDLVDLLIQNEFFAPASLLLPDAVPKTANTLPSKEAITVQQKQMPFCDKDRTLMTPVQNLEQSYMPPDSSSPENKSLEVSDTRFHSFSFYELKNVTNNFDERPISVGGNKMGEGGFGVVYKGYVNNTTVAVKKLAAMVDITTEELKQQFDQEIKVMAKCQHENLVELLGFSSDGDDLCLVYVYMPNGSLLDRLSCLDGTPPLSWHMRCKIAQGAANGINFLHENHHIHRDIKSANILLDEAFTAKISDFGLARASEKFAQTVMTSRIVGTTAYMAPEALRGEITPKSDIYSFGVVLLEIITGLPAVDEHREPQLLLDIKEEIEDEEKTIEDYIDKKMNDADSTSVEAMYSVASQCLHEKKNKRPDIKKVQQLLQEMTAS
As to the kind of experiment: IRAK4 MSD degradation in OCI-LY10. As to conditions: OCI-LY10 cells, 24 hrs, Meso Scale Discovery. In kind it is cell-based. The method, then:
Degradation of IRAK4 in OCI-LY10 was quantitatively measured using Meso Scale Discovery technology. […] Compounds were then added to the assay plates with a final top concentration of 1 to 10 μM in a 1:3 dilution series with total of 8 doses. The assay plates were then incubated for 4 to 24 hours at 37° C. under 5% CO2. […] To prepare MSD assay plates (Meso Scale Discovery Catalog number L15XA-3), the plates were coated with 2 μg/mL capture antibody (mouse Anti-IRAK4 antibody [2H9], ab119942) in PBS, at 40 μL/well. […] Cell lysates were then added to MSD assay plates and the plates were incubated at room temperature for 1 hour. The plates were then washed 3 times with 150 μL/well TBST buffer and 25 μL/well primary detection antibody (rabbit Anti-IRAK4 antibody [Y279], from Abcam. Catalog number ab32511, 1 μg/mL). The assay plates were then incubated at room temperature for 1 hour, washed 3 times with 150 μL/well TBST buffer and 25 μL/well secondary detection antibody, SULFO-TAG anti-rabbit antibody were added (anti-rabbit antibody from Meso Scale Discovery, Catalog number R32AB-1, 1 μg/mL). The assay plates were then incubated at room temperature for 1 hour, washed 3 times with 150 μL/well TBST buffer, and 150 μL/well MSD reading buffer (Meso Scale Discovery catalog number R92TC-2) was added. The plates were then analyzed by a MSD reader (Meso Scale Discovery, Model Quick Plex SQ 120). The data was then analyzed by software Prism 7.0 from GraphPad and the dose-depended IRAK4 degradation were fit using a three-parameter logistic equation to calculate DC50.
The letter codes for IRAK4 DC50 include: A (<0.01 μM); B (0.01 to <0.1 μM); C (0.1 to 0.2 μM); D (>0.2 μM) and E (not tested).

The term DC50 denotes the midpoint of the concentration-degradation curve.

Molecules are shown by their SMILES.

The molecule `COc1cc2nn([C@H]3CC[C@H](CN4CCC5(CC4)CCN(c4cccc6c4c(C)nn6C4CCC(=O)NC4=O)CC5)CC3)cc2cc1NC(=O)c1cncc(C#N)c1` (stereo partly shown) [I-49] displayed a DC50 of 10 to 100 nM.

Regarding `COc1cc2nn([C@H]3CC[C@H](CN4CCC5(CC4)CCN(c4cccc6c4c(C)nn6C4CCC(=O)NC4=O)CC5)CC3)cc2cc1NC(=O)c1cncc(C)c1` (stereo partly shown) [I-50], the half-maximal degradation concentration (DC50) was 10 to 100 nM.

`Cn1c(NC(=O)c2cccc(C(F)(F)F)n2)cc2cn([C@H]3CC[C@H](CN4CC[C@H](c5cccc6c5n(C)c(=O)n6C5CCC(=O)NC5=O)[C@@H](F)C4)CC3)nc2c1=O` (stereo partly shown) [I-43] came in with a DC50 above 200 nM.

The molecule `COc1cc2nc([C@H]3CC[C@H](CN(C)[C@@H]4CCN(c5cccc6c5n(C)c(=O)n6C5CCC(=O)NC5=O)C[C@@H]4F)CC3)sc2cc1NC(=O)c1cccc(C(F)(F)F)n1` (single isomer, unassigned) [I-99] returned a half-maximal degradation concentration (DC50) below 10 nM.

Turning to `C[C@H]1CN(c2ccn3ncc(C(=O)Nc4cn([C@H]5CC[C@H](CN(C)C6CCN(c7cccc8c7n(C)c(=O)n8C7CCC(=O)NC7=O)C[C@@H]6F)CC5)nc4C(F)F)c3n2)CCO1` (stereo partly shown) [I-26], the half-maximal degradation concentration (DC50) is below 10 nM.

Take `Cn1c(=O)n(C2CCC(=O)NC2=O)c2cccc([C@@H]3CCN(C[C@H]4CC[C@H](n5cc6cc(NC(=O)c7coc(C(F)(F)F)n7)ccc6n5)CC4)C[C@H]3F)c21` (stereo partly shown) [I-165]: the 50% degradation concentration (DC50) was below 10 nM.

Molecule `CN(C[C@H]1CC[C@H](c2nc3cc(C(C)(C)O)c(NC(=O)c4cncc(C(F)(F)F)n4)cc3s2)CC1)[C@@H]1CCN(c2cccc3c2n(C)c(=O)n3C2CCC(=O)NC2=O)C[C@H]1F` (single isomer, unassigned) [I-300] gave a DC50 below 10 nM.

The molecule `O=C1CCC(c2ccc(N3CC(CO[C@H]4CCN(C[C@H]5CC[C@H](n6cc(NC(=O)c7cnn8ccc(N9C[C@H]%10C[C@@H]9CO%10)nc78)c(C(F)F)n6)CC5)C[C@@H]4F)C3)cc2Cl)C(=O)N1` (stereo partly shown) [I-55] displayed a DC50 of 10 to 100 nM.

As for `O=C1CCC(Nc2ccc(N3CC(O)(CN4CCN(C[C@H]5CC[C@H](n6cc(NC(=O)c7cnn8ccc(N9C[C@H]%10C[C@@H]9CO%10)nc78)c(C(F)F)n6)CC5)CC4)C3)cc2)C(=O)N1` (stereo partly shown) [I-72], the DC50 was 10 to 100 nM.

`CN(C[C@H]1C[C@@H](n2cc(NC(=O)c3cnn4ccc(N5C[C@H]6C[C@@H]5CO6)nc34)c(C(F)F)n2)C1)[C@H]1CCN(c2cccc3c2n(C)c(=O)n3C2CCC(=O)NC2=O)C[C@H]1F` (stereo partly shown) [I-65] gave a DC50 below 10 nM.

Turning to `CN(C[C@H]1CC[C@H](n2cc3cc(NC(=O)c4cccc(C(F)(F)F)n4)c(C(C)(C)O)cc3n2)CC1)[C@@H]1CCN(c2cccc3c2n(C)c(=O)n3C2CCC(=O)NC2=O)C[C@H]1F` (stereo partly shown) [I-2], the half-maximal degradation concentration (DC50) is below 10 nM.

Consider `Cn1c(=O)n(C2CCC(=O)NC2=O)c2cccc(N3CC(C4CCN([C@H]5CC[C@H](n6cc(NC(=O)c7cnn8ccc(N9C[C@H]%10C[C@@H]9CO%10)nc78)c(C(F)F)n6)CC5)CC4(F)F)C3)c21` (stereo partly shown) [I-115], for which the half-maximal degradation concentration (DC50) was below 10 nM.

Molecule `Cn1nc(C2CCC(=O)NC2=O)c2cccc(N3CC(CN4CCN(C[C@H]5CC[C@H](n6cc(NC(=O)c7cnn8ccc(N9C[C@H]%10C[C@@H]9CO%10)nc78)c(C(F)F)n6)CC5)CC4)C3)c21` (stereo partly shown) [I-93] had a DC50 below 10 nM.

Molecule `COc1ccc2c(c1N1CC[C@@H](N(C)C[C@H]3CC[C@H](n4cc(NC(=O)c5cnn6cccnc56)c(C(F)F)n4)CC3)[C@H](F)C1)n(C)c(=O)n2C1CCC(=O)NC1=O` (single isomer, unassigned) [I-152] returned a DC50 below 10 nM.

With `Cn1c(=O)n(C2CCC(=O)NC2=O)c2cccc(C#CCN3CCN(C[C@H]4CC[C@H](n5cc(NC(=O)c6cnn7ccc(N8C[C@H]9C[C@@H]8CO9)nc67)c(C(F)F)n5)CC4)[C@@H](C(F)(F)F)C3)c21` (stereo partly shown) [I-320], the 50% degradation concentration (DC50) fell in the range of 10 to 100 nM.

Consider `CN(C[C@H]1CC[C@H](c2cn3cc(NC(=O)c4cncc(C(F)(F)F)n4)c(C(C)(C)O)cc3n2)CC1)[C@H]1CCN(c2cccc3c2n(C)c(=O)n3C2CCC(=O)NC2=O)C[C@H]1F` (single isomer, unassigned) [I-336], for which the half-maximal degradation concentration (DC50) was below 10 nM.

For `Cn1c(=O)n(C2CCC(=O)NC2=O)c2cccc([C@@H]3CCN(C[C@H]4CC[C@H](n5cc6cc(NC(=O)c7cnnc(C(F)(F)F)c7)ccc6n5)CC4)C[C@H]3F)c21` (stereo partly shown) [I-316], the DC50 was above 200 nM.

With `CN(C[C@H]1CC[C@H](n2cc(NC(=O)c3cnn4cccnc34)c(C(F)F)n2)CC1)[C@H]1CCN(c2cccc3c2n(C)c(=O)n3C2CCC(=O)NC2=O)CC1(F)F` (stereo partly shown) [I-203], the 50% degradation concentration (DC50) was 10 to 100 nM.

`COc1cc2nc([C@H]3CC[C@H](CN4CC[C@@H](c5cccc6c5n(C)c(=O)n6C5CCC(=O)NC5=O)[C@H](F)C4)CC3)sc2cc1NC(=O)c1cncc(C(F)(F)F)n1` (stereo partly shown) [I-174] gave a 50% degradation concentration (DC50) of 10 to 100 nM.

The molecule `Cn1c(=O)n(C2CCC(=O)NC2=O)c2ccc(F)c([C@H]3CCN(C[C@H]4CC[C@H](n5cc6cc(NC(=O)c7cncc(C(F)(F)F)n7)ccc6n5)CC4)CC3(F)F)c21` (single isomer, unassigned) [I-377] had a 50% degradation concentration (DC50) below 10 nM.

The molecule `Cc1nn([C@H]2CCC(=O)NC2=O)c2cccc(N3CC(CN4CCN(C[C@H]5CC[C@H](n6cc(NC(=O)c7cnn8ccc(N9C[C@H]%10C[C@@H]9CO%10)nc78)c(C(F)F)n6)CC5)CC4)C3)c12` [I-88] showed a half-maximal degradation concentration (DC50) below 10 nM.

Turning to `O=C1CCC(c2noc3c(NC(=O)CN4CCN(C[C@H]5CC[C@H](n6cc7cc(NC(=O)c8cccc(C(F)(F)F)n8)ncc7n6)CC5)CC4)cccc23)C(=O)N1` (stereo partly shown) [I-71], the DC50 lay within 10 to 100 nM.

Turning to `O=C1CCN(c2cncc3c(N4CC(O)(CN5CCN(C[C@H]6CC[C@H](n7cc(NC(=O)c8cnn9ccc(N%10C[C@H]%11C[C@@H]%10CO%11)nc89)c(C(F)F)n7)CC6)CC5)C4)cccc23)C(=O)N1` [I-67], the DC50 is below 10 nM.

With `O=C1CCC(Nc2ccc(N3CC(CN4CCN(C[C@H]5CC[C@H](n6cc(NC(=O)c7cnn8ccc(N9C[C@H]%10C[C@@H]9CO%10)nc78)c(C(F)F)n6)CC5)CC4)C3)cc2)C(=O)N1` (stereo partly shown) [I-61], the half-maximal degradation concentration (DC50) is 10 to 100 nM.

In the case of `Cn1c(=O)n(C2CCC(=O)NC2=O)c2cccc([C@H]3CCN(C[C@H]4CC[C@H](c5nc6cc(C(C)(C)O)c(NC(=O)c7cccc(C(F)(F)F)n7)cc6s5)CC4)C[C@@H]3F)c21` (stereo partly shown) [I-103], the DC50 is below 10 nM.

The molecule `COc1cc2nn([C@H]3CC[C@H](CN4CCC5(CCN(c6cccc7c6n(C)c(=O)n7C6CCC(=O)NC6=O)CC5)C(F)(F)C4)CC3)cc2cc1NC(=O)c1cccc(C(F)(F)F)c1` (stereo partly shown) [I-151] showed a half-maximal degradation concentration (DC50) of 10 to 100 nM.

On to `CN(C[C@H]1CC[C@H](c2nc3cc(C(C)(C)O)c(NC(=O)c4cncc(C(F)(F)F)n4)cc3o2)CC1)[C@H]1CCN(c2cccc3c2n(C)c(=O)n3C2CCC(=O)NC2=O)C[C@H]1F` (single isomer, unassigned) [I-299], for which the DC50 is below 10 nM.

Molecule `COc1cc2nc([C@H]3CC[C@H](CN4CC[C@@H](c5cccc6c5n(C)c(=O)n6C5CCC(=O)NC5=O)[C@H](F)C4)CC3)sc2cc1NC(=O)c1cncc(C#N)c1` (stereo partly shown) [I-277] returned a 50% degradation concentration (DC50) above 200 nM.

On to `COc1ccc2c(c1N1CC[C@@H](N(C)C[C@H]3CC[C@H](n4cc(NC(=O)c5cnn6cccnc56)c(C(F)F)n4)CC3)C(F)(F)C1)n(C)c(=O)n2C1CCC(=O)NC1=O` (single isomer, unassigned) [I-204], for which the DC50 fell in the range of 10 to 100 nM.

`O=C1CCN(c2cncc3c(N4CC(CO[C@H]5CCN(C[C@H]6CC[C@H](n7cc(NC(=O)c8cnn9ccc(N%10C[C@H]%11C[C@@H]%10CO%11)nc89)c(C(F)F)n7)CC6)C[C@@H]5F)C4)cccc23)C(=O)N1` (single isomer, unassigned) [I-75] registered a 50% degradation concentration (DC50) of 10 to 100 nM.

Turning to `CC(C)(O)c1cc2nn([C@H]3CC[C@H](CN4CCN(c5cccc(NC6CCC(=O)NC6=O)c5)CC4)CC3)cc2cc1NC(=O)c1cccc(C(F)(F)F)n1` (stereo partly shown) [I-77], the DC50 was in the range of 10 to 100 nM.

As to `O=C1CCN(c2cncc3c(N4CC(CO[C@@H]5CCN(C[C@H]6CC[C@H](n7cc(NC(=O)c8cnn9ccc(N%10C[C@H]%11C[C@@H]%10CO%11)nc89)c(C(F)F)n7)CC6)C[C@@H]5F)C4)cccc23)C(=O)N1` [I-120], the DC50 was below 10 nM.

Turning to `COc1cc2nc([C@H]3CC[C@H](CN(C)[C@H]4CCN(c5cccc6c5n(C)c(=O)n6C5CCC(=O)NC5=O)C[C@H]4F)CC3)cn2cc1NC(=O)c1cncc(C(F)(F)F)n1` (single isomer, unassigned) [I-333], the DC50 was below 10 nM.

As for `COc1cc2nn([C@H]3CC[C@H](CN4CCN(c5cccc6c5c(C)nn6C5CCC(=O)NC5=O)CC4)CC3)cc2cc1NC(=O)c1cncc(C#N)c1` (stereo partly shown) [I-48], the half-maximal degradation concentration (DC50) lay in the range of 10 to 100 nM.
